Laboratory results reported in ChEMBL document CHEMBL6120986, “In silico inspired design of urea noscapine congeners as anticancer agents: Chemical synthesis and experimental evaluation using breast cancer cells and a xenograft mouse model” (Eur J Med Chem, 2025).

Tests used:
[1] = tested on: MCF7; experiment: Antiproliferative activity against human MCF7 cells assessed as inhibition of cell proliferation incubated for 72 hrs by SRB assay; type: functional, cell-based; conditions: MCF7, 72 h
[2] = tested on: MDA-MB-231; experiment: Antiproliferative activity against human MDA-MB-231 cells assessed as inhibition of cell proliferation incubated for 72 hrs by SRB assay; type: functional, cell-based; conditions: MDA-MB-231, 72 h
[3] = Cytotoxicty against HEK cells incubated for 72 hrs by SRB assay; type: toxicity, cell-based; conditions: human

| IC50 [1] [µM] | IC50 [2] [µM] | SMILES | IC50 at 72 h [3] [µM] |
| --- | --- | --- | --- |
| 32.7 | 35.2 | COc1ccc2c(c1OC)C(=O)O[C@@H]2[C@H]1c2c(c(NC(=O)Nc3ccc(F)c(Cl)c3)c3c(c2OC)OCO3)CCN1C | 285 |
| 29.5 | 33.2 | COc1ccc2c(c1OC)C(=O)O[C@@H]2[C@H]1c2c(c(NC(=O)Nc3cccc(C(C)=O)c3)c3c(c2OC)OCO3)CCN1C | 306 |
| 17.5 | 20.4 | COc1ccc(NC(=O)Nc2c3c(c(OC)c4c2OCO4)[C@H]([C@H]2OC(=O)c4c2ccc(OC)c4OC)N(C)CC3)c(OC)c1 | 306 |
| 39.7 | 54 | COc1ccc2c(c1OC)C(=O)O[C@@H]2[C@H]1c2c(cc3c(c2OC)OCO3)CCN1C [NOSCAPINE] | 229 |
| 38.2 | 45.7 | CCc1ccc(NC(=O)Nc2c3c(c(OC)c4c2OCO4)[C@H]([C@H]2OC(=O)c4c2ccc(OC)c4OC)N(C)CC3)cc1 | 290 |
